Experimental data published in patent US20250101062A1, “ANTIMICROBIAL PEPTIDES” (Board of Regents of the University of Nebraska, priority 2023, published 2025).
Values after ≈ are worked out from the molar mass of the structure shown. Read-outs that look alike come from different tables or passages of the source. Where a SMILES comes first, the peptide text is derived from it.

Columns and labels:
[1] = test system: S. epidermidis 1457; assay: microbe, parasite or virus in culture; format: cell-based, Staphylococcus epidermidis; details: read-out: Antimicrobial activity (MIC) S. epidermidis 1457
Protocol: (§1) The following resistant bacterial clinical strains were used in this study: S. aureus USA300 LAC, S. epidermidis 1457, E. coli E423-17, P. aeruginosa E411-17, K. pneumoniae E406-17, and A. baumannii B28-16. While the S. aureus USA300 strain is methicillin-resistant, most of the Gram-negative bacteria contain extended-spectrum beta-lactamase and are resistant to beta-lactam antibiotics. Peptide activity against bacteria was tested using an established lab protocol (Mishra, et al. (2017) Acta Biomater., 49:316-328). In brief, a peptide concentration gradient with twofold dilution was made in the 96-well polystyrene microplate at 10 μL per well. Bacteria were grown to the exponential phase (i.e., optical density at 600 nm≈0.5), diluted to ˜10^5 CFU/mL in different percentages of MHB, TSB, or LB, and partitioned into the 96-well microplate at 90 μL per well. […] They were diluted with autoclaved distilled water to obtain different percentages. The microplates were incubated at 37° C. overnight and read on a ChroMate™ 4300 microplate reader at 600 nm (GMI, Ramsey, MN). The peptide concentration in the wells without bacterial growth is the MIC. As is the convention, MIC values were represented as ranges.
(§2) Peptide activity against bacteria were tested using the CLSI standard procedure with minor modifications (Clinical and Laboratory Standards Institute (2018) Performance standards for antimicrobial susceptibility testing, 9th ed.; Mishra, et al. (2019) Proc. Natl. Acad. Sci., 116(27):13517-13522). In brief, a peptide concentration gradient with twofold dilution was made in the 96-well polystyrene microplate at 10 μL per well. Bacteria were grown to the exponential phase (i.e., optical density at 600 nm≈0.5), diluted to ˜10^5 CFU/mL in MHB, and partitioned into the 96-well microplate at 90 μL per well. The microplates were incubated at 37° C. overnight and read on a ChroMate® 4300 Microplate Reader at 600 nm (GMI, Ramsey, MN). The peptide concentration in the wells without bacterial growth is the minimal inhibitory concentration (MIC). As the convention, MIC values were represented as ranges.

[2] = test system: S. aureus USA300 LAC biofilms; assay: Disruption of preformed biofilms in vitro (XTT); format: cell-based, Staphylococcus aureus; details: 24 h preformed biofilm
Protocol: (§3) Effects of Peptides on Established Biofilms in Vitro. Bacteria (S. aureus USA300 LAC and E. coli E423-17) were grown in rich TSB media overnight. A second inoculation was made the next day to reach an exponential phase (OD600˜0.4). Microtiter plates (96 wells, Corning Costar Cat no. 3595), after aliquoting with 180 μL of the culture to each well, were incubated at 37° C. for 24 hours to form biofilms in rich TSB. Media were aspirated post incubation, and the attached biofilms were washed with 1×PBS to remove the planktonic bacteria. […] Biofilms treated with water served as the positive control, while media without bacterial inoculation served as the negative control. Live cells in the biofilms were quantitated using XTT as described above. Absorbance was read at 450 nm (only media with XTT containing wells served as the blank) using a ChroMate™ microtiter plate reader. Percentage biofilm growth for the peptide was plotted by assuming 100% biofilm growth in bacterial control alone. The data were represented as mean±SD; plots were generated using GraphPad prism 7, where * indicates p<0.05, **p<0.01, and ***P<0.001, and ****p<0.0001 (one-way analyses of variance).
LL-37 is known to inhibit bacterial biofilms (Overhage, et al. (2008) Infect. Immun., 76:4176-4182). However, it was unable to disrupt preformed MRSA biofilms in rich media (Mishra, et al. (2016) ACS Med. Chem. Lett., 7:117-121). Next, it was determined whether the diluted MHB medium could be useful to detect biofilm-disrupting activity for LL-37 against MRSA. An established procedure (Mishra, et al. (2016) ACS Med. Chem. Lett., 7:117-121; Duplantier, et al. (2013) Front. Immunol., 4:143) was used wherein biofilms were formed and washed as usual to remove planktonic cells. The biofilms were then treated with peptides in 12.5% MHB for 24 hours. Finally, live cells were quantified with XTT (ATCC). FIG. 2 compares the levels of live cells of MRSA in the preformed biofilms after 24 hour treatment. […] Of note is a similar pattern for both peptides in 12.5% MHB treated at various concentrations.
Bacteria (S. aureus USA300 LAC or P. aeruginosa E411-17) were grown up in TSB media overnight. A second inoculation was made the next day to reach an exponential phase (OD600˜0.4). Microtiter plates (96 wells, Corning Costar Cat No. 3595), after aliquoting with 180 μL of the culture to each well, were incubated at 37° C. for 24 hours to form biofilms in rich TSB. Media were aspirated post incubation and the attached biofilms were washed with 1×PBS to remove the planktonic bacteria. […] Biofilms treated with water served as the positive control while media without bacterial inoculation served as the negative control. Live cells in the biofilms were quantitated using the XTT as described above. Absorbance was read at 450 nm (only media with XTT containing wells served as the blank) using a ChroMate® microtiter plate reader. Percentage biofilm growth (the plot legend is antibiofilm activity) for the peptides was plotted by assuming 100% biofilm growth in bacterial control alone. The data were represented as mean±SD, plots were generated using GraphPad prism 7, where * indicates p<0.05, ** p<0.01, and ***P<0.001, and ****p<0.0001 (one-way analyses of variance).

[3] = test system: P. aeruginosa E411-17; assay: microbe, parasite or virus in culture; format: cell-based, Pseudomonas aeruginosa; details: E411-17
Protocol: as §1
(§4) For pH effects on peptide activity, the pH of the medium was adjusted to a targeted pH for the autoclave and then remeasured at room temperature. For salt and serum effects on peptide activity, stock NaCl solution or human serum was added to the media.
as §2
(§5) For pH effects on peptide activity, the pH of the medium was adjusted to a targeted pH for autoclave and then remeasured at room temperature. For salt and serum effects on peptide activity, stock NaCl solution or human serum were added to the media.

[4] = test system: S. aureus USA300 LAC; assay: microbe, parasite or virus in culture; format: cell-based, Staphylococcus aureus
Protocol: as §1, §4, §2, §5

[5] = test system: A. baumannii B28-16; format: cell-based, Acinetobacter baumannii; details: B28-16
Protocol: as §1, §2

[6] = test system: E. coli E423-17 biofilms; assay: Disruption of preformed biofilms in vitro (XTT); format: cell-based, Escherichia coli; details: 24 h preformed biofilm
Protocol: as §3

[7] = test system: E. coli E423-17; format: cell-based, Escherichia coli; details: E423-17
Protocol: as §1, §4, §2, §5

[8] = test system: MRSA USA300; assay: microbe, parasite or virus in culture; format: cell-based, Staphylococcus aureus
Protocol: The experiment was conducted as described (Lakshmaiah et al. (2020) Proc. Natl. Acad. Sci., 117:19446-19454). Briefly, MRSA USA300 was grown to the exponential phase in MHB and diluted to OD600 0.001 (˜10^5 CFU/mL). Aliquots of 90 μL were added to a 96-well polystyrene microplate (Costar, Corning, NY) containing 10 μL of serially diluted LL-37mini, nafcillin, or daptomycin. After overnight incubation at 37° C., the plates were read at 600 nm using a ChroMate™ microplate reader (GMI, Ramsey, MN). Untreated bacterial culture and medium were included as untreated control and blank, respectively. The MIC is the lowest peptide concentration that inhibited the bacterial growth. The wells with sub-MIC levels of the peptides that retained growth approximately half the growth of the control wells were reinoculated in fresh MHB with sub-MIC concertation of peptides or antibiotics to attain exponential phase for MIC determination. In total, 17 passages of the bacterial cultures were conducted. A rapid increase in MIC is an indication of antibiotic resistance.

[9] = Effect of MHB dilution on antibacterial activity of a panel of antibiotics; format: cell-based; details: MHB from 100 to 12.5%
Protocol: FIGS. 2A-2D show biofilm disruption activity of human LL-37 (FIGS. 2A and 2B) and 17BIPHE2 (FIGS. 2C and 2D) against the 24 hour preformed biofilms of S. aureus USA300 LAC in different MHB media: 12.5% MHB (FIGS. 2A and 2C) and 100% MHB (FIGS. 2B and 2D). FIGS. 2E-2H show the treatment outcome of LL-37 (FIGS. 2E and 2F) and 17BIPHE2 (FIGS. 2G and 2H) against the 24-hour preformed biofilms of E. coli E423-17 in different MHB media: 12.5% MHB (FIGS. 2E and 2G) and 100% MHB (FIGS. 2F and 2H). […] Growth curves of S. aureus USA 300 LAC (FIGS. 2J-2K) and P. aeruginosa 152 (FIGS. 2L-2M) in 12.5%, 25%, 50% and 100% MHB or TSB medium (curves from bottom to top).
The effects of MHB dilution on the antimicrobial activity of a panel of antibiotics was also compared (FIG. 2I).

## CC(C)C[C@H](NC(=O)[C@H](CC(N)=O)NC(=O)[C@H](CCCNC(=N)N)NC(=O)[C@@H](CC(C)C)NC(=O)[C@H](Cc1ccc(-c2ccccc2)cc1)NC(=O)[C@H](CC(=O)O)NC(=O)[C@H](CCCCN)NC(=O)[C@@H](CC(C)C)NC(=O)[C@H](CCCNC(=N)N)NC(=O)[C@H](CCC(N)=O)NC(=O)[C@@H](NC(=O)[C@@H](CC(C)C)NC(=O)[C@H](CCCNC(=N)N)NC(=O)[C@H](CCCCN)NC(=O)[C@H](Cc1ccc(-c2ccccc2)cc1)NC(=O)CN)C(C)C)C(=O)N[C@H](C(N)=O)C(C)C [17BIPHE2] (HELM PEPTIDE1{G.[O=C([C@H](Cc1ccc(-c2ccccc2)cc1)N[*:1])[*:2]].K.R.[dL].V.Q.R.[dL].K.D.[O=C([C@H](Cc1ccc(-c2ccccc2)cc1)N[*:1])[*:2]].[dL].R.N.L.V.[am]}$$$$V2.0; N-terminus and C-terminus assumed)
[1]
  MIC: 8 µM (≈ 18 µg/mL)
[2]; 12.5% MHB
  peptide concentration showing biofilm disruption: 16 µM
[2]; 100% MHB
  peptide concentration at which it started to work on biofilms: 8 µM
[2]; 100% MHB, treated at 16 μM for 24 h
  live bacteria remained in the biofilms: ~30%
[3]
  Antimicrobial activity (MIC) P. aeruginosa E411-17: 4 µM
[4]; USA300
  MIC: 2 to 4 µM
[4]; USA300, read-out: Antimicrobial activity (MIC) S. aureus USA300
  MIC: 4 µM (≈ 9.02 µg/mL)
[5]
  Antimicrobial activity (MIC) A. baumannii B28-16: 4 µM
[6]; 12.5% MHB
  effect on biofilms: dose-dependent antibiofilm effect
[6]; 100% MHB
  effect on biofilms: subtle effect
[7]
  Antimicrobial activity (MIC): <2 µM
  Antimicrobial activity (MIC) E. coli E423-17: 4 µM

## CCOc1ccc2ccccc2c1C(=O)N[C@@H]1C(=O)N2[C@@H]1SC(C)(C)[C@@H]2C(=O)O [Nafcillin]
[4]; Staphylococcus aureus, MRSA / USA300, MRSA in MHB, 20% serum, read-out: Antimicrobial activity (MIC)
  MIC: 16 to 32 µM (≈ 6.63 to 13.3 µg/mL)
[4]; Staphylococcus aureus, MRSA / USA300, pH 6.3, MRSA in MHB, pH 6.3, read-out: Antimicrobial activity (MIC)
  MIC: 16 µM (≈ 6.63 µg/mL)
[4]; Staphylococcus aureus, MRSA / USA300, pH 7.2, MRSA in MHB, pH 7.2, read-out: Antimicrobial activity (MIC)
  MIC: 4 to 8 µM (≈ 1.66 to 3.32 µg/mL)
[8]; 17 passages at sub-MIC
  increase of MIC: 32 fold
[8]; Staphylococcus aureus, read-out: MIC after multiple passages
  MIC: 128 µM (≈ 53.1 µg/mL)
[9]
  change in MIC with dilution of MHB: small changes in MIC values

## CN[C@H](CC(C)C)C(=O)N[C@H]1C(=O)N[C@@H](CC(N)=O)C(=O)N[C@H]2C(=O)N[C@H]3C(=O)N[C@H](C(=O)N[C@H](C(=O)O)c4cc(O)cc(O)c4-c4cc3ccc4O)[C@H](O)c3ccc(c(Cl)c3)Oc3cc2cc(c3O[C@@H]2O[C@H](CO)[C@@H](O)[C@H](O)[C@H]2O[C@H]2C[C@](C)(N)[C@H](O)[C@H](C)O2)Oc2ccc(cc2Cl)[C@H]1O [Vancomycin]
[4]; Staphylococcus aureus, MRSA / USA300, pH 6.3, read-out: Antimicrobial activity (MIC), MRSA in MHB, pH 6.3
  MIC: 0.5 µM (≈ 0.725 µg/mL)
[4]; Staphylococcus aureus, MRSA / USA300, pH 7.2, read-out: Antimicrobial activity (MIC), MRSA in MHB, pH 7.2
  MIC: 0.5 µM (≈ 0.725 µg/mL)
[4]; Staphylococcus aureus, MRSA / USA300, read-out: Antimicrobial activity (MIC), MRSA in MHB, 10% serum
  MIC: 0.5 µM (≈ 0.725 µg/mL)
[4]; Staphylococcus aureus, MRSA / USA300, read-out: Antimicrobial activity (MIC), MRSA in MHB, 20% serum
  MIC: 0.5 to 1 µM (≈ 0.725 to 1.45 µg/mL)
[4]; Staphylococcus aureus, MRSA / USA300, read-out: Antimicrobial activity (MIC), MRSA in MHB, NaCl (150 mM)
  MIC: 0.5 to 1 µM (≈ 0.725 to 1.45 µg/mL)
[9]
  change in MIC with dilution of MHB: essentially no changes
